Legend:
Assay type in all cases: cell-based
[1] = molecular target: T1, CXCR3 (Homo sapiens, UniProt P49682); experiment: CXCL10-induced death of vitiligo melanocytes in co-culture with autologous CD3+ T cells, IncuCyte
T1 sequence (P49682 1-415 isoform P49682-2): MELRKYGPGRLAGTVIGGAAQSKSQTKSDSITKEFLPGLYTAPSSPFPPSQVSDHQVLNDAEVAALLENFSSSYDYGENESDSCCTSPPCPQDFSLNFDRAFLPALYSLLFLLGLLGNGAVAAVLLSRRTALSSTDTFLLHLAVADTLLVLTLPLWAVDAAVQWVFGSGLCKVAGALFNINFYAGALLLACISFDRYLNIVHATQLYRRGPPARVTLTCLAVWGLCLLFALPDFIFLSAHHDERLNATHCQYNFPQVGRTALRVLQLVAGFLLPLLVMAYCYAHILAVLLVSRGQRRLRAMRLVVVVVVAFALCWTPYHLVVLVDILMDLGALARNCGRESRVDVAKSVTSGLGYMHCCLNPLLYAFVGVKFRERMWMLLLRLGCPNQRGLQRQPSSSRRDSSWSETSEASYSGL
Source text: (A) CXCL10-induced death of vitiligo melanocytes in presence or absence of patients own autologous T cells. […] The next day, media was replaced and 3 days later patient's own CD3+ T cell were sorted and added to the melanocytes (n=3) prior to initiation of IncuCyte.

[2] = molecular target: T1, CXCR3; experiment: CXCL10-induced melanocyte death, IncuCyte live cell imaging, with CXCR3 antagonist, blocking antibody or siCXCR3; settings: IFNγ-pretreated (50 ng/ml, 48 hrs) vitiligo melanocytes; AS612568 0.02, 0.2, 2 μM; FIG. 2A
Experimental: (A) Effect of CXCL10 (5, 20, 100 pg/ml) on cell viability in unstimulated or IFNγ stimulated (50 ng/ml for 48 hrs) melanocytes from vitiligo patients, in presence or absence of CXCR3 antagonist AS612568 (0.02 μM, 0.2 μM or 2 μM) (n=5-8). Cell viability was monitored using lncuCyte® live cell fluorescence imaging system. (B) Effect of siCXCR3 or siC on CXCL10 (100 pg/ml)-induced death of healthy (n=4-8) and vitiligo (n=4) melanocytes. Melanocytes were tracked with CellTracker™ Red CMPTX dye and dead cells tracked with IncuCyte® Cytotox Green reagent. […] Cell viability was monitored using IncuCyte® live cell fluorescence imaging system. […] Results are expressed as mean with SEM, *P<0.05, **P<0.01 and ***P<0.001.
Melanocytes were plated in 96-well plates (10,000/well) and stimulated with 50 ng/ml IFNγ for 48 hrs prior to transfection with 50 or 80 nM siCXCR3 or siC (SmartPool scramble sequence siRNA, Dharmacon, France) or with 80 nM custom-designed siCXCR3B or siC (ThermoFisher, France) using Lipofectamine® RNAiMAX Reagent (Invitrogen, France) in optiMEM medium (Invitrogen). […] Finally, Incucyte® green Cytotox Reagent (100 nM, Essen Bioscience, Michigan, USA) was added to all wells and melanocyte death monitored in real-time using IncuCyte® Zoom live-cell imaging system (Essen Biosciences) which was inside a 37° C. humidified CO2 incubator scanning the plate every 2 hrs. […]

[3] = system: human melanocytes; experiment: Melanocyte death after chemokine stimulation, IncuCyte live cell imaging; settings: for melanocyte death: chemokine 100 pg/ml, healthy and vitiligo melanocytes, 24 hrs, FIG. 2C
Experimental: (A) Effect of CXCL10 (5, 20, 100 pg/ml) on cell viability in unstimulated or IFNγ stimulated (50 ng/ml for 48 hrs) melanocytes from vitiligo patients, in presence or absence of CXCR3 antagonist AS612568 (0.02 μM, 0.2 μM or 2 μM) (n=5-8). Cell viability was monitored using lncuCyte® live cell fluorescence imaging system. (B) Effect of siCXCR3 or siC on CXCL10 (100 pg/ml)-induced death of healthy (n=4-8) and vitiligo (n=4) melanocytes. Melanocytes were tracked with CellTracker™ Red CMPTX dye and dead cells tracked with IncuCyte® Cytotox Green reagent. (C) Healthy and vitiligo melanocytes (n=6-12) were transfected with custom-designed siCXCR3B or siC and melanocyte death shown at 24 hrs following CXCL10, CXCL9 or CXCL11 (100 pg/ml) stimulation. (D) Effect of CXCL10 (100 pg/ml) on cell viability in untreated or IFNγ pretreated (50 ng/ml for 48 hrs) melanocytes from vitiligo patients, in presence or absence of CXCR3 blocking antibody (MAB-160, R&D Systems, USA at 1 or 10 μg/ml) (n=3). Cell viability was monitored using IncuCyte® live cell fluorescence imaging system. Melanocytes were tracked with CellTracker™ Red CMPTX dye and dead cells tracked with IncuCyte® Cytotox Green reagent. Results are expressed as mean with SEM, *P<0.05, **P<0.01 and ***P<0.001.
Melanocytes were plated in 96-well plates (10,000/well) and stimulated with 50 ng/ml IFNγ for 48 hrs prior to transfection with 50 or 80 nM siCXCR3 or siC (SmartPool scramble sequence siRNA, Dharmacon, France) or with 80 nM custom-designed siCXCR3B or siC (ThermoFisher, France) using Lipofectamine® RNAiMAX Reagent (Invitrogen, France) in optiMEM medium (Invitrogen). […] Finally, Incucyte® green Cytotox Reagent (100 nM, Essen Bioscience, Michigan, USA) was added to all wells and melanocyte death monitored in real-time using IncuCyte® Zoom live-cell imaging system (Essen Biosciences) which was inside a 37° C. humidified CO2 incubator scanning the plate every 2 hrs. Multiple images were collected per well and quantification of dead melanocytes (yellow co-localised cells) was analysed using the integrated Zoom® software. […]

`N#Cc1ccc(S(=O)(=O)N(Cc2ccc(-c3nnn[nH]3)c(F)c2)Cc2ccccc2F)cc1` [AS612568, 4-cyano-N-(3-fluoro-4-(1H-tetrazol-5-yl)benzyl)-N-(2-fluorobenzyl)benzenesulfonamide] was tested, and the “augmentation of T cell number” value ([1]; AS612568 2 μM, CD3+ T cells in IncuCyte co-culture, P=0.04, FIG. 3B) was “prevented”, the “potentiating effect of T cells on CXCL10-induced melanocyte death” value ([1]; AS612568 2 μM, IFNγ-pretreated vitiligo melanocytes plus autologous CD3+ T cells, P=0.008, FIG. 3A) was “prevented” and the T cell proliferation ([1]; AS612568, T cells co-cultured with IFNγ-primed, CXCL10-stimulated melanocytes, data not shown) was “prevented”. The “melanocyte death induced by CXCL10” value [2] was “inhibited melanocyte death induced by CXCL10 in a dose-dependent manner”.

For “CXCL10: recombinant human chemokine (PeproTech), CXCR3 ligand used as stimulus”, the “melanocyte death compared to non-stimulated melanocytes” value ([3]; vitiligo melanocytes, IFNγ pre-treated, CXCL10 5, 20, 100 pg/ml, dose-dependent, P=0.006, FIG. 2A) was “significantly increased melanocyte death”.

B1: CXCL9: recombinant human chemokine (PeproTech), CXCR3 ligand used as stimulus (protein, UniProt Q07325 23-125, looked up)
C-X-C motif chemokine 9: TPVVRKGRCSCISTNQGTIHLQSLKDLKQFAPSPSCEKIEIIATLKNGVQTCLNPDSADVKELIKKWEKQVSQKKKQKNGKKHQKKKVLKVRKSQRSRQKKTT
For B1, the melanocyte death [3] was “induced a significant melanocyte death”.

B2: CXCL11: recombinant human chemokine (PeproTech), CXCR3 ligand used as stimulus (protein, UniProt O14625 22-94, looked up)
C-X-C motif chemokine 11: FPMFKRGRCLCIGPGVKAVKVADIEKASIMYPSNNCDKIEVIITLKENKGQRCLNPKSKQARLIIKKVERKNF
With B2 the melanocyte death [3] was “induced a significant melanocyte death”.
